From patent publication US10357556B2, “Methods and compositions for T cell generation and uses thereof” (priority 2016, dated 2019)

How the values were obtained:
[1] = tested on: CD4+Foxp3+ regulatory T cells (Tregs); assay: In vitro DC-T cell co-culture: pulsed BMDCs co-cultured with CD4+ T cells; type: cell-based, mouse
Procedure: Co-culture of bone marrow-derived dendritic cells (BMDCs) and CD4^+ T cells were performed as previously described (30, 32, 36). Briefly, BMDCs were generated from bone marrow progenitor cells isolated from femurs of WT or Atg16L1^ΔCD11c mice in the presence of 20 ng/ml GM-CSF (Miltenyi) in complete RPMI media 1640 (10% fetal bovine serum, 50 U/ml penicillin, 50 μg/ml streptomycin, 2 mM L-glutamine, 1 mM sodium pyruvate, 1 mM HEPES, and non-essential amino acids, and β-mercaptoethanol). BMDCs were pulsed with PBS, WT-OMVs (10 μg/ml), ΔPSA-OMVs (10 μg/ml) or pure PSA (50 μg/ml) for 18-22 hrs; OMVs with a protein content of 10 μg contain 50 μg of PSA. […]
(§1) Cells were incubated in 5% mouse serum for 15 min and stained for 20 min at 4° C. with either LIVE/DEAD fixable green or far red dead stain kit (Life Technologies), with empirically titrated concentrations of the following antibodies: PerCP-Cy5.5-conjugated anti-mouse CD4 (clone: RM4-5), PerCP-Cy5.5-conjugated anti-human CD4 (clone: OKT4), and/or PE-Cy7-conjugated anti-mouse CD4 (clone: RM4-5). […] Cell acquisition was performed on a BD FACS Calibur (BD Biosciences) or Miltenyi MACSQuant (Miltenyi), and data was analyzed using FlowJo software suite (TreeStar). For ELISAs, cell supernatant from in vitro DC-T cell co-culture were collected and mouse IL-10 and IL-17A were measured using commercially available kits (eBiosciences).

[2] = tested on: CD4+CD25- responder effector T cells (Teff); assay: In vitro T cell suppression assay; type: cell-based, mouse; conditions: Tregs from co-cultures with Atg16L1ΔCD11c BMDCs
Procedure: CD4^+CD25^+ Treg cells were purified from in vitro BMDC-T cell co-cultures using magnetic microbeads (Miltenyi). CD4^+CD25^− responder effector T cells (Teff) were isolated from mouse spleens, labeled with 2.5 μM CFSE for 10 min at 37° C. in the dark, washed, and incubated with Treg cells at various Treg:Teff ratios in the presence of 1 μg/ml anti-mouse CD3 (eBiosciences). Irradiated CD4-depleted mouse splenocytes served as antigen-presenting cells. Cultures were incubated for 48 and 72 hrs, cells were stained with specific antibodies and a viability dye, and analyzed by flow cytometry. Dilution of CFSE signal is a measure of proliferation, and inhibition of proliferation a measure of Treg activity.

[3] = tested on: LC3-associated phagocytosis (LAP); assay: LC3-GFP accumulation in BMDCs (LAP activation); type: cell-based, mouse; conditions: Rubicon+/- BMDCs
Procedure: Quantification of LC3-GFP accumulation upon 2 h treatment of BMDCs with PBS, B. fragilis WT-OMV, ΔPSA-OMV or purified PSA in Rubicon^+/− or Rubicon^−/− DCs. Error bars represent S.E.M. **** p<0.0001. Data are representative of 3 independent experiments.

CD4+Foxp3+ Tregs = assay: Human MoDC - syngeneic CD4+ T cell co-culture; type: cell-based; conditions: cells from most subjects, regardless of genotype
Procedure: To generate monocyte-derived dendritic cell (MoDCs), human PBMCs were isolated from fresh whole blood the same day of harvest using Ficoll-Hypaque (GE Healthcare) gradient (density=1.070 g/ml), followed by monocyte enrichment using the Human Monocyte Isolation Kit II (Miltenyi). For differentiation into MoDCs, monocytes were incubated with recombinant human IL-4 and GM-CSF (Peprotech) every two days in complete RPMI 1640 (5% human AB serum, 50 U/ml penicillin, 50 μg/ml streptomycin, 2 mM L-glutamine, 1 mM sodium pyruvate, 1 mM HEPES, non-essential amino acids, […]). […]
as §1

Substance: Polysaccharide A [PSA]
- IL-10 production ([1]; ATG16L1-deficient (Atg16L1ΔCD11c) DCs): does not require ATG16L1 for its activity
- IL-10 production among CD4+Foxp3- type 1 regulatory T cells ([1]; WT or Atg16L1ΔCD11c DCs): Neither WT-OMVs nor pure PSA have any effect
- Treg suppressive activity [2]: does not require ATG16L1 to promote suppressive Treg activity
- Accumulation of membrane-bound LC3-GFP (LC3-II) / LAP activation [3]: neither APSA-OMVs nor purified PSA are able to activate LAP
- Response (IL-10 among CD4+Foxp3+ Tregs) (CD4+Foxp3+ Tregs): respond to purified PSA
